Test: gradient 5% acetonitrile 3 min, to 50% in 2 min, to 85% in 15 min, held 3 min, 100 µL/min
Details: column: Zorbax Extend-C18 2.1 x 50 mm; eluents: water / acetonitrile, 0.1% formic acid
Outline: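 Retention time was recorded from adduct peaks, which were picked computationally and each inspected manually. Pure standards ran in mixtures of ~100 molecules on HPLC coupled to a quadrupole time-of-flight mass spectrometer, in positive and negative ionization mode, through a Zorbax Extend-C18 column (2.1 × 50 mm, 1.8 μm) at 100 μL/min. Eluents were water and acetonitrile, each with 0.1% formic acid.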

| Structure (SMILES) | RP-LC retention time |
| --- | --- |
| Cc1cn(C)nc1C(=O)Nc1nc2ccc(S(C)(=O)=O)cc2s1 | 699 s |
| O=C(c1cn2ccnc(-c3ccccc3)c2n1)N1CCN(C2CCCCC2)CC1 | 637 s |
| O=C(Cc1ccc(Cl)cc1)N1CCN(S(=O)(=O)c2cc3c4c(c2)CCC(=O)N4CCC3)CC1 | 842 s |
| CCc1ccccc1S(=O)(=O)N(C)CC1CCOC1 (centres undefined) | 850 s |
| CN1CCCn2cc(S(=O)(=O)Nc3ccc(Cl)cc3F)cc2C1=O | 727 s |
| CCc1ccccc1NC(=O)Cn1ncc2c(c1=O)N(CC1CC1)C(=O)CS2 | 757 s |
| O=C(CN1C(=O)C2CCCCN2c2ccc(C(=O)N3CCCCC3)cc21)NCc1cccnc1 (centres undefined) | 615 s |
| O=C(Nc1cnc2ccccc2c1)N(c1ccccc1)c1ccccc1 | 754 s |
| CCNC(=O)c1ccc2nnc(C3CC3)n2c1 | 590 s |
| Cc1ccccc1S(=O)(=O)N1CCC(C(=O)NCc2csc(-c3cccs3)n2)CC1 | 898 s |
| CCCN1CCN(CCCNC(=O)CN2C(=O)CCn3nc(-c4cn(C)c5ccccc45)cc32)CC1 | 589 s |
| CCC(=O)N1CC(n2cc(C(=O)NCC3CC3)nn2)C1 | 617 s |
| CC1CCN(c2ncc3c(n2)CCN(Cc2ccc(OC(C)C)cc2)C3)CC1 | 807 s |
| Cc1nc(OCC(=O)NCc2ccc(Cl)cc2)c2c(C)c(C)oc2n1 | 941 s |
| CCOc1ccc(NS(=O)(=O)c2cc(-c3c(C)noc3NC(C)=O)ccc2OC)cc1 | 773 s |
| CCn1c(CCc2ccccc2NS(=O)(=O)c2cccc3nsnc23)nc2ccccc21 | 713 s |
| CCCn1c(=O)c2cc(C(=O)Nc3ccccc3)nn2c2ccccc21 | 1030 s |
| CCc1noc(NC(C)=O)c1-c1ccc(OC)c(S(=O)(=O)Nc2ccc(C)cc2)c1 | 784 s |
| O=C(Nc1ccc2c(c1)CCC2)C1CCN(C(=O)c2ncn3c2COC(c2ccc(F)cc2)C3)CC1 (centres undefined) | 872 s |
| CCN1CCN(Cc2ccc(C(=O)Nc3ccc(C)c(Oc4ccc5c(c4)CC(=O)N5)c3)cc2C(F)(F)F)CC1 | 817 s |
| [O-]/[N+](=C\c1ccccc1)CC1(O)CCCCC1 | 798 s |
| Cc1cc(C)c(S(=O)(=O)Nc2cccc(C(F)(F)F)c2)c(C)c1 | 1100 s |
| Cc1ccc(-n2c(=O)n(C)c(=O)c3cc(C(=O)Nc4ccc5c(c4)OCCO5)cnc32)cc1 | 892 s |

| Structure (SMILES) | RP-LC retention time |
| --- | --- |
| O=C(c1noc2c1CCc1sccc1-2)N1CCN(c2ccccn2)CC1 | 673 s |
| Nc1cc(C2CCN(C(=O)/C=C/c3ccccc3Cl)CC2)no1 | 747 s |
| CC(=O)N1CCc2ccc(NC(=O)c3cccc(Br)c3)cc21 | 774 s |
| CCC(C)NC(=O)c1cc(C)nc2ccc(Cl)cc12 (centres undefined) | 770 s |
| Cc1ccc(CNC(=O)c2csc(-c3cn(C)c4ncccc34)n2)cc1C | 840 s |
| Cc1ccc(C)c(S(=O)(=O)N2CCC(N3CCN(Cc4ccccc4)C(=O)C3=O)CC2)c1 | 861 s |
| CCOC(=O)c1nc(NCCc2ccc(OCC)cc2)c2ccccc2n1 | 836 s |
| CCCSc1nnc(CNC(=O)c2ccccc2F)n1-c1cccc(C(F)(F)F)c1 | 831 s |
| COc1ccc(-c2ccnn2-c2ccc(SCc3cccc(C)c3)nn2)cc1 | 1400 s |
| CCOC(=O)c1c(C)[nH]c(C)c1S(=O)(=O)N1CCC(C(=O)NCCN2CCCCCC2)CC1 | 592 s |
| O=C(CCC1CCN(c2cc(NC3CC3)ncn2)CC1)NCc1ccccc1F | 673 s |
| Cc1ccc(NS(=O)(=O)c2cc(-c3[nH]ncc3C(=O)N3CCCC3)oc2C)cc1F | 741 s |
| Cc1ccc(Cn2c(=O)n(CCNC(=O)C3CC3)c3ncccc32)cc1 | 740 s |
| COc1ccc(C2(C(=O)N3CCC(Cc4ncc(C)n4CC4CC4)C3)CC2)cc1 (centres undefined) | 654 s |
| Cn1nccc1C(=O)N1CCCC1c1ccc(Cl)cc1 (centres undefined) | 817 s |
| COc1ccccc1C(=O)Nc1cnc(-c2ccc(Cl)cc2)nc1 | 1170 s |
| Cc1ccc(-c2nc(NC(=O)CCc3ccccc3)sc2C)cc1 | 1150 s |
| COc1ccccc1N1CCN(C(=O)CN2C(=O)CC(c3cccs3)=Nc3ccccc32)CC1 | 898 s |
| CC1Oc2ccccc2OC1C(=O)NCc1ccsc1 (centres undefined) | 832 s |
| CC(=O)N1CCc2cc(N3CC(C(=O)NCc4ccc(Cl)cc4)CC3=O)ccc21 (centres undefined) | 720 s |
| CCn1ncc(NC(=O)c2ccc(OC)c(OC)c2)c(N2CCOCC2)c1=O | 722 s |
| O=C(Cc1nnc2cc(-c3nc(C4CC4)no3)ccn12)N1CCSCC1 | 698 s |
| CN1CCC(NC(=O)c2ccc(-n3cc(CNC(=O)C4CCC4)cn3)cc2)CC1 | 585 s |

| Structure (SMILES) | RP-LC retention time |
| --- | --- |
| O=C(CN1C(=O)CCS(=O)(=O)c2ccccc21)NCCc1ccccc1 | 745 s |
| Cc1cccc(CN2C(=O)CCc3c(C)nc(-c4ccncc4)nc32)c1 | 764 s |
| CCCCCCOc1ccccc1C(N)=O | 1040 s |
| CCOC(=O)c1c(C)n(CC(=O)OC)c2ccc(OC)cc12 | 904 s |
| Cc1ccc(S(=O)(=O)c2nnn3c2nc(N2CCN(c4ccccn4)CC2)c2ccccc23)cc1 | 711 s |
| CC(NC(=O)c1ccccc1)c1nc(-c2ccc(NS(=O)(=O)c3cccs3)cc2)no1 (centres undefined) | 890 s |
| COc1cc2c(cc1OC)C1C(C(=O)NCCN3CCOCC3)c3ccccc3C(=O)N1CC2 (centres undefined) | 590 s |
| COc1ccc(NS(=O)(=O)c2c(C)nn(-c3ccc(-c4ccc(C)cc4)nn3)c2C)cc1 | 1060 s |
| CCOc1nc2ccccc2nc1N1CCCC(C(=O)N2CCN(c3ccccc3)CC2)C1 (centres undefined) | 1280 s |
| O=c1ccc(-c2ccc3c(c2)OCO3)nn1CCc1nc(-c2ccccc2)no1 | 908 s |
| Cc1ccc(CNC(=O)CN2CCc3ccccc3C2C(=O)N2CCC(C)CC2)cc1C (centres undefined) | 1030 s |
| Cc1ccc(NC(=O)N2CCCC2c2nncn2-c2ccccc2)cc1C (centres undefined) | 767 s |
| O=C(CCc1c[nH]c2ccccc12)N1CC(n2cc(COCC3CC3)nn2)C1 | 719 s |
| COc1ccc(C2C(C(=O)Nc3cccc(C)n3)c3ccccc3C(=O)N2C)cc1 (centres undefined) | 791 s |
| COc1ccc(-c2noc(C3CCCN3C(=O)c3ccoc3)n2)cc1 (centres undefined) | 835 s |
| CCn1cc(C)c(C(=O)O)c1CC(=O)NCCCN1CCN(C)CC1 | 562 s |
| CC(C)NC(=O)C1CCN(c2cnc(N3CCSCC3)nc2)CC1 | 629 s |
| O=C(Cn1cnc(-c2cccs2)cc1=O)NCc1ccccc1OC(F)(F)F | 801 s |
| CCc1ccc(NC(=O)C2CC(=O)N(CCc3c[nH]c4ccc(OC)cc34)C2)cc1 (centres undefined) | 831 s |
| COC(=O)c1cccc(Nc2c(-c3ccccc3)nc3cnc(Br)cn23)c1 | 949 s |
| Fc1cccc(-c2nn3c(CSc4ccccc4)nnc3s2)c1 | 969 s |
| COC[C@@H]1CN(Cc2ccccn2)C[C@H]1c1nc(C2CC2)no1 | 602 s |
| COc1ccc(C(=O)N2CCCn3nc(-c4cccs4)cc3C2)c(OC)c1 | 798 s |

| Structure (SMILES) | RP-LC retention time |
| --- | --- |
| COCCNC(=O)CC1CCN(C(=O)c2cc3cc(Cl)ccc3[nH]2)CC1 | 701 s |
| COc1ccc(-c2nc3cnccn3c2Nc2cccc(Cl)c2C)cc1OC | 890 s |
| CC(C)Cn1c(=O)c(N2CCN(C(=O)CSc3ccccc3)CC2)nc2ccncc21 | 724 s |
| CN1C(=O)c2ccccc2Oc2ccc(C(=O)NCc3cccs3)cc21 | 847 s |
| CC(C)CN1C(=O)c2cccn2CC1C(=O)NCC1CCCCC1 (centres undefined) | 828 s |
| CC(C)c1ccc(-c2ccnc3c(C(=O)N4CCN(c5ncccn5)CC4)cnn23)cc1 | 963 s |
| O=C(c1cc(Cl)ccc1F)N1CCN(c2cc(-c3cccs3)[nH]n2)CC1 | 833 s |
| O=C(NCCN1CCCC1)c1cc2n(n1)CCCN(Cc1ccc(Cl)cc1)C2=O | 627 s |
| Cc1cc(C)c2c(n1)SCCN2C(=O)CCC(=O)NCc1ccc(Cl)cc1 | 696 s |
| Cc1cc(-n2c(C)nc3ccccc3c2=O)ccc1NC(=O)CCC1CCCC1 | 892 s |
| O=C(Nc1ccc(F)cc1Cl)C1CCN(C(=O)c2cccn2-c2cccnc2)CC1 | 727 s |
| Cc1cc2c(c(=O)n(-c3ccc(F)cc3)c(=O)n2CC(=O)Nc2cc(F)ccc2F)n1C | 875 s |
| Cc1[nH]c(=O)[nH]c(=O)c1CCc1nnc(SCC(=O)c2ccc3c(c2)NC(=O)CO3)o1 | 589 s |
| CC(CNC(=O)C1CCN(C(=O)c2ncn3c2COC(c2ccccc2)C3)CC1)c1ccccc1 (centres undefined) | 826 s |
| Cc1cccc(Sc2nccnc2N2CCCC(C(=O)NC(C)c3ccccc3)C2)c1 (centres undefined) | 1150 s |
| Cc1ccc(-n2cc(C(=O)NCc3ccco3)nn2)cc1C | 854 s |
| Cc1ccc(-c2noc(Cn3ncn4nc(-c5ccc(C)cc5C)cc4c3=O)n2)cc1 | 1270 s |
| O=C(Cn1ncc2c(c1=O)N(C1CC1)C(=O)CS2)Nc1ccc2c(c1)OCCO2 | 693 s |
| Clc1ccc(-c2nc(NC3CCCCCC3)c3ccccc3n2)cc1 | 1030 s |
| CCCCN(C)Cc1nc2nc(C)cc(N3CCOCC3)n2n1 | 582 s |

— the METLIN SMRT retention time set (Domingo-Almenara et al. 2019)
